Data: article PMC9533837 (Antiviral Research, 2003)
Values after ≈ are worked out from the molar mass of the structure shown. Where two headings read alike, the source gives them in different places.

Experiments:
[1] = tested on: VAR-BSH (1975 Bangladesh isolate of VAR major); test: organism not typed; assay type: cell-based, variola major; conditions: for IC50: LLC-MK2, read-out: IC50 VAR-BSH LLC-MK2
[2] = tested on: VAR-YAM (1946 Japan Yamada isolate of VAR major); test: organism not typed; assay type: cell-based, variola major; conditions: for IC50: Vero
[3] = tested on: VAR-GAR (1966 Brazil Garcia isolate of VAR minor); test: organism not typed; assay type: cell-based, variola minor; conditions: for IC50: Vero
[4] = tested on: VAR-GAR (1966 Brazil Garcia isolate of VAR minor); test: organism not typed; assay type: cell-based, variola minor; conditions: for IC50: LLC-MK2, read-out: IC50 VAR-GAR LLC-MK2
[5] = tested on: MPX Zaire (V79-1-005-Scab); test: organism not typed; assay type: cell-based, monkeypox; conditions: for IC50: Vero
[6] = tested on: MPX Zaire (V79-1-005-Scab); test: organism not typed; assay type: cell-based, monkeypox; conditions: for IC50: LLC-MK2, read-out: IC50 MPX LLC-MK2
[7] = tested on: CPX Brighton; test: organism not typed; assay type: cell-based, cowpox; conditions: for IC50: Vero
[8] = tested on: CPX Brighton; test: organism not typed; assay type: cell-based, cowpox; conditions: for IC50: LLC-MK2, read-out: IC50 CPX LLC-MK2
[9] = tested on: VAC Copenhagen; test: microbe, parasite or virus in culture; assay type: cell-based, vaccinia virus; conditions: for IC50: Orthopoxvirus vaccinia, Vero, read-out: IC50 VAC Vero
[10] = tested on: VAC Copenhagen; test: microbe, parasite or virus in culture; assay type: cell-based, vaccinia virus; conditions: for IC50: Orthopoxvirus vaccinia, LLC-MK2, read-out: IC50 VAC LLC-MK2
[11] = tested on: VAR isolate Butler; test: organism not typed; assay type: cell-based, variola minor; conditions: Vero, read-out: IC50, VAR isolate Butler
[12] = tested on: VAR isolate Minn124; test: organism not typed; assay type: cell-based, variola minor; conditions: Vero, read-out: IC50, VAR isolate Minn124
[13] = tested on: VAR isolate V68-59; test: organism not typed; assay type: cell-based, variola minor; conditions: Vero, read-out: IC50, VAR isolate V68-59
[14] = tested on: VAR isolate 102; test: organism not typed; assay type: cell-based, variola; conditions: Vero, read-out: IC50, VAR isolate 102
[15] = tested on: VAR isolate 7124; test: organism not typed; assay type: cell-based, variola; conditions: Vero, read-out: IC50, VAR isolate 7124
[16] = tested on: VAR isolate 7125; test: organism not typed; assay type: cell-based, variola; conditions: Vero, read-out: IC50, VAR isolate 7125
[17] = tested on: VAR isolate Eth17; test: organism not typed; assay type: cell-based, variola; conditions: Vero, read-out: IC50, VAR isolate Eth17
[18] = tested on: VAR isolate Harper; test: organism not typed; assay type: cell-based, variola; conditions: Vero, read-out: IC50, VAR isolate Harper
[19] = tested on: VAR isolate Heidelberg; test: organism not typed; assay type: cell-based, variola; conditions: Vero, read-out: IC50, VAR isolate Heidelberg
[20] = tested on: VAR isolate Hinden; test: organism not typed; assay type: cell-based, variola; conditions: Vero, read-out: IC50, VAR isolate Hinden
[21] = tested on: VAR isolate Horn; test: organism not typed; assay type: cell-based, variola; conditions: Vero, read-out: IC50, VAR isolate Horn
[22] = tested on: VAR isolate Iran 2602; test: organism not typed; assay type: cell-based, variola; conditions: Vero, read-out: IC50, VAR isolate Iran 2602
[23] = tested on: VAR isolate K1629; test: organism not typed; assay type: cell-based, variola; conditions: Vero, read-out: IC50, VAR isolate K1629
[24] = tested on: VAR isolate Jee; test: organism not typed; assay type: cell-based, variola; conditions: Vero, read-out: IC50, VAR isolate Jee
[25] = tested on: VAR isolate Rafig Lahore; test: organism not typed; assay type: cell-based, variola; conditions: Vero, read-out: IC50, VAR isolate Rafig Lahore
[26] = tested on: VAR isolate Somalia; test: organism not typed; assay type: cell-based, variola; conditions: Vero, read-out: IC50, VAR isolate Somalia
[27] = tested on: VAR isolate V70-46; test: organism not typed; assay type: cell-based, variola; conditions: Vero, read-out: IC50, VAR isolate V70-46
[28] = tested on: VAR isolate V70-222; test: organism not typed; assay type: cell-based, variola; conditions: Vero, read-out: IC50, VAR isolate V70-222
[29] = tested on: VAR isolate V72-119; test: organism not typed; assay type: cell-based, variola; conditions: Vero, read-out: IC50, VAR isolate V72-119
[30] = tested on: VAR isolate V73-175; test: organism not typed; assay type: cell-based, variola; conditions: Vero, read-out: IC50, VAR isolate V73-175
[31] = tested on: VAR isolate V73-225; test: organism not typed; assay type: cell-based, variola; conditions: Vero, read-out: IC50, VAR isolate V73-225
[32] = tested on: VAR isolate V74-227; test: organism not typed; assay type: cell-based, variola; conditions: Vero, read-out: IC50, VAR isolate V74-227
[33] = tested on: all VAR isolates tested; test: organism not typed; assay type: cell-based, variola; conditions: Vero, read-out: IC50, VAR mean
[34] = tested on: orthopoxviruses (VAR-BSH, VAR-YAM, VAR-GAR, MPX, CPX, VAC); test: organism not typed; assay type: cell-based
[35] = tested on: Vero cells; conditions: African green monkey
[36] = tested on: CPX; conditions: cited from earlier work
[37] = tested on: VAC; conditions: cited from earlier work
[38] = read-out: IC50, VAR isolate Yamada
[39] = read-out: IC50, VAR isolate Garcia

Nc1ccn(C[C@@H](CO)OCP(=O)(O)O)c(=O)n1 [Cidofovir, 1-[(S)-3-hydroxy-2-(phosphonomethoxy)-propyl]cytosine]
Therapeutic index (TI) VAR-BSH LLC-MK2 [1]: 31.3
IC50 [1]: 3.2 µg/mL (≈ 11.5 µM)
Therapeutic index (TI) VAR-YAM Vero [2]: 8.3
IC50 [2, 38]: 13 µg/mL (≈ 46.6 µM)
IC50 ([2]; read-out: IC50 VAR-YAM Vero): 12.1 µg/mL (≈ 43.3 µM)
Therapeutic index (TI) VAR-GAR Vero [3]: 22.2
IC50 [3, 39]: 7 µg/mL (≈ 25.1 µM)
IC50 ([3]; read-out: IC50 VAR-GAR Vero): 4.5 µg/mL (≈ 16.1 µM)
Therapeutic index (TI) VAR-GAR LLC-MK2 [4]: 40.0
IC50 [4]: 2.5 µg/mL (≈ 8.95 µM)
Therapeutic index (TI) MPX Vero [5]: 14.9
IC50 ([5]; read-out: IC50, MPX): 11 µg/mL (≈ 39.4 µM)
IC50 ([5]; read-out: IC50 MPX Vero): 6.7 µg/mL (≈ 24 µM)
Therapeutic index (TI) MPX LLC-MK2 [6]: 27.0
IC50 [6]: 3.7 µg/mL (≈ 13.3 µM)
Therapeutic index (TI) CPX Vero [7]: 13.3
IC50 ([7]; read-out: IC50, CPX): 13 µg/mL (≈ 46.6 µM)
IC50 ([7]; read-out: IC50 CPX Vero): 7.5 µg/mL (≈ 26.9 µM)
Therapeutic index (TI) CPX LLC-MK2 [8]: 83.3
IC50 [8]: 1.2 µg/mL (≈ 4.3 µM)
Therapeutic index (TI) VAC Vero [9]: 12.3
IC50 [9]: 8.1 µg/mL (≈ 29 µM)
Therapeutic index (TI) VAC LLC-MK2 [10]: 23.3
IC50 [10]: 4.3 µg/mL (≈ 15.4 µM)
IC50 [11]: 6 µg/mL (≈ 21.5 µM)
IC50 [12]: 5 µg/mL (≈ 17.9 µM)
IC50 [13]: 13 µg/mL (≈ 46.6 µM)
IC50 [14]: 23 µg/mL (≈ 82.4 µM)
IC50 [15]: 20 µg/mL (≈ 71.6 µM)
IC50 [16]: 12 µg/mL (≈ 43 µM)
IC50 [17]: 11 µg/mL (≈ 39.4 µM)
IC50 [18]: 28 µg/mL (≈ 100 µM)
IC50 [19]: 15 µg/mL (≈ 53.7 µM)
IC50 [20]: 10 µg/mL (≈ 35.8 µM)
IC50 [21]: 11 µg/mL (≈ 39.4 µM)
IC50 [22]: 8 µg/mL (≈ 28.7 µM)
IC50 [23]: 17 µg/mL (≈ 60.9 µM)
IC50 [24]: 10 µg/mL (≈ 35.8 µM)
IC50 [25]: 12 µg/mL (≈ 43 µM)
IC50 [26]: 7 µg/mL (≈ 25.1 µM)
IC50 [27]: 7 µg/mL (≈ 25.1 µM)
IC50 [28]: 12 µg/mL (≈ 43 µM)
IC50 [29]: 10 µg/mL (≈ 35.8 µM)
IC50 [30]: 12 µg/mL (≈ 43 µM)
IC50 [31]: 5 µg/mL (≈ 17.9 µM)
IC50 [32]: 10 µg/mL (≈ 35.8 µM)
IC50 [33]: 12 ± 1 µg/mL (≈ 43 µM)
TI against the panel of viruses [34]: 18.2
IC50 ([34]; read-out: mean IC50 against the panel of viruses): 5.5 ± 0.95 µg/mL (≈ 19.7 µM)
Cytotoxicity TC50 Vero [35]: >100 µg/mL
activity in vivo, CPX mouse model [36]: active in vivo
inhibition of VAC replication in vitro [37]: inhibit VAC replication in vitro

NC(=O)c1ncn([C@@H]2O[C@H](CO)[C@@H](O)[C@H]2O)n1 [Ribavirin]
Therapeutic index (TI) VAR-BSH LLC-MK2 [1]: 47.6
IC50 [1]: 2.1 µg/mL (≈ 8.6 µM)
Therapeutic index (TI) VAR-YAM Vero [2]: 6.3
IC50 [2, 38]: 40 µg/mL (≈ 164 µM)
IC50 ([2]; read-out: IC50 VAR-YAM Vero): 15.8 µg/mL (≈ 64.7 µM)
Therapeutic index (TI) VAR-GAR Vero [3]: 5.9
IC50 [3, 39]: 39 µg/mL (≈ 160 µM)
IC50 ([3]; read-out: IC50 VAR-GAR Vero): 17 µg/mL (≈ 69.6 µM)
Therapeutic index (TI) VAR-GAR LLC-MK2 [4]: 27.8
IC50 [4]: 3.6 µg/mL (≈ 14.7 µM)
Therapeutic index (TI) MPX Vero [5]: 16.9
IC50 ([5]; read-out: IC50, MPX): 11 µg/mL (≈ 45 µM)
IC50 ([5]; read-out: IC50 MPX Vero): 5.9 µg/mL (≈ 24.2 µM)
Therapeutic index (TI) MPX LLC-MK2 [6]: 24.4
IC50 [6]: 4.1 µg/mL (≈ 16.8 µM)
Therapeutic index (TI) CPX Vero [7]: 3.3
IC50 ([7]; read-out: IC50, CPX): > 300 µg/mL
IC50 ([7]; read-out: IC50 CPX Vero): 30.6 µg/mL (≈ 125 µM)
Therapeutic index (TI) CPX LLC-MK2 [8]: 9.4
IC50 [8]: 10.6 µg/mL (≈ 43.4 µM)
Therapeutic index (TI) VAC Vero [9]: 1.0
IC50 [9]: > 100 µg/mL
Therapeutic index (TI) VAC LLC-MK2 [10]: 4.2
IC50 [10]: 23.9 µg/mL (≈ 97.9 µM)
IC50 [11]: 28 µg/mL (≈ 115 µM)
IC50 [12]: 32 µg/mL (≈ 131 µM)
IC50 [13]: 41 µg/mL (≈ 168 µM)
IC50 [14]: 110 µg/mL (≈ 450 µM)
IC50 [15]: 36 µg/mL (≈ 147 µM)
IC50 [16]: 37 µg/mL (≈ 152 µM)
IC50 [17]: 61 µg/mL (≈ 250 µM)
IC50 [18]: 40 µg/mL (≈ 164 µM)
IC50 [19]: 43 µg/mL (≈ 176 µM)
IC50 [20]: 33 µg/mL (≈ 135 µM)
IC50 [21]: 28 µg/mL (≈ 115 µM)
IC50 [22]: 11 µg/mL (≈ 45 µM)
IC50 [23]: 24 µg/mL (≈ 98.3 µM)
IC50 [24]: 47 µg/mL (≈ 192 µM)
IC50 [25]: 30 µg/mL (≈ 123 µM)
IC50 [26]: 84 µg/mL (≈ 344 µM)
IC50 [27]: 45 µg/mL (≈ 184 µM)
IC50 [28]: 221 µg/mL (≈ 905 µM)
IC50 [29]: 35 µg/mL (≈ 143 µM)
IC50 [30]: 17 µg/mL (≈ 69.6 µM)
IC50 [31]: 26 µg/mL (≈ 106 µM)
IC50 [32]: 54 µg/mL (≈ 221 µM)
IC50 [33]: 50 ± 8 µg/mL (≈ 205 µM)
IC50 ([34]; LLC-MK2, read-out: mean IC50 on LLC-MK2 cells): 8 ± 3.4 µg/mL (≈ 32.8 µM)
IC50 ([34]; Vero, read-out: mean IC50 on Vero cells): 31.3 ± 14.1 µg/mL (≈ 128 µM)
Cytotoxicity TC50 Vero [35]: >100 µg/mL
protection of CPX-infected mice ([36]; mouse, in vivo): can protect CPX-infected mice
inhibition of VAC replication in vitro [37]: inhibited VAC replication in vitro
